# Test results from ChEMBL document CHEMBL1151865, “New developments for the design, synthesis and biological evaluation of potent SARS-CoV 3CL(pro) inhibitors” (Bioorg Med Chem Lett, 2009).
# Target: Replicase polyprotein 1ab (Severe acute respiratory syndrome-related coronavirus, UniProt P0C6X7)
# Assay: Inhibition of SARS coronavirus 3CL protease pretreated for 10 mins before substrate addition
row,Structure (SMILES),Ki [µM]
1,CCCN(CCC)C(=O)CC[C@H](NC(=O)[C@H](CC(C)C)NC(=O)[C@@H](NC(=O)[C@H](C)NC(=O)OCc1ccccc1)C(C)C)C(=O)C(F)(F)F,297
2,CC(C)C[C@H](NC(=O)[C@@H](NC(=O)OCc1ccccc1)C(C)C)C(=O)N[C@@H](CCC(=O)N(C)Cc1ccccc1)C(=O)C(F)(F)F,34.1
3,CC(C)C[C@H](NC(=O)[C@@H](NC(=O)OCc1ccccc1)C(C)C)C(=O)N[C@@H](CCC(=O)N1CCOCC1)C(=O)C(F)(F)F,21
4,CCN(CC)C(=O)CC[C@H](NC(=O)[C@H](CC(C)C)NC(=O)OCc1ccccc1)C(=O)c1nccs1,462
5,CCCN(CCC)C(=O)CC[C@H](NC(=O)[C@H](CC(C)C)NC(=O)[C@@H](NC(=O)OCc1ccccc1)C(C)C)C(=O)C(F)(F)F,363
6,CCN(CC)C(=O)CC[C@H](NC(=O)[C@H](CC(C)C)NC(=O)[C@@H](NC(=O)OCc1ccccc1)C(C)C)C(=O)c1nccs1,112
7,CC(C)C[C@H](NC(=O)[C@@H](NC(=O)OCc1ccccc1)C(C)C)C(=O)N[C@@H](CCC(=O)N1CCOCC1)C(=O)c1nccs1,478
8,CCN(CC)C(=O)CC[C@H](NC(=O)[C@@H](NC(=O)OCc1ccccc1)C(C)C)C(=O)c1nccs1,614
9,CCN(CC)C(=O)CC[C@H](NC(=O)[C@H](CC(C)C)NC(=O)[C@@H](NC(=O)OCc1ccccc1)C(C)C)C(=O)c1nc2ccccc2s1,49.3
10,CCN(CC)C(=O)CC[C@H](NC(=O)[C@@H](NC(=O)OCc1ccccc1)C(C)C)C(=O)c1nc2ccccc2s1,159
11,CCCN(CCC)C(=O)CC[C@H](NC(=O)[C@H](CC(C)C)NC(=O)OCc1ccccc1)C(=O)C(F)(F)F,584
12,CC(C)C[C@H](NC(=O)[C@@H](NC(=O)OCc1ccccc1)C(C)C)C(=O)N[C@@H](CCC(=O)c1nccs1)C(=O)c1nccs1,45.2
